Laboratory results published in patent US4918172A, “Anthracycline antibiotics” (Sanraku Incorporated, priority 1987, dated 1990).
≈ marks a conversion by molar mass, not a printed value.

Columns and labels:
Type in all cases: cell-based
[1] = test system: mouse leukemia L1210 culture cells; assay: inhibition of propagation (50% growth inhibiting concentration) of mouse leukemia L1210 culture cells; settings: read-out: 50% Inhibiting Concentration (IC50) Cell Growth Inhibition
Protocol: (§1) Activity of inhibition propagation of mouse leukemia L1210 culture cells and of inhibition synthesis of nucleic acid in the cells:
L1210 cells (5×10^4 /ml) were inoculated in RPMI 1640 medium (Rose Wellberg Laboratory) containing 20% calf serum, and the compound of the present invention (as indicated in Table 1 below) was added thereto in a concentration of from 0.0005 to 50.0 μg/ml. Thus the cells were incubated in a CO2 incubator at 37° C. for 48 hours, and the 50% growth inhibiting concentration relative to the control group was obtained. The compound of the present invention was dissolved in M/50 acetic acid (pH 3.0) in a concentration of […] and then diluted with Dulbecco PBS (-) (manufactured by Nissui Pharmaceutical Co.), before being added to the medium.

[2] = test system: mouse leukemia L1210 culture cells; assay: inhibition of RNA synthesis in L1210 culture cells (14C-uridine uptake); settings: 10% calf serum RPMI 1640, label added 15 minutes after compound, further 60 minutes at 37° C., read-out: 50% Inhibiting Concentration (IC50) RNA Synthesis Inhibition
Protocol: as §1
(§2) Then a solution of the compound of the present invention prepared as mentioned above was added to the medium in a different concentration. 15 minutes after the addition, ^14 C-uridine (0.05 μCi/ml) or ^14 C-thymidine (0.05 μCi/ml) was added and the medium was further incubated at 37° C. for an additional 60 minutes. A cold 10% trichloroacetic acid (TCA) was added to the reaction solution so that the reaction was stopped and the acid-insoluble substance was precipitated. This was washed twice with a cold 5% TCA and then dissolved in formic acid. Then the radioactivity of the resulting solution was measured, and the 50% uptake inhibiting concentration was obtained from the radioactivity uptake ratio relative to the control group.

[3] = test system: mouse leukemia L1210 culture cells; assay: inhibition of DNA synthesis in L1210 culture cells (14C-thymidine uptake); settings: 10% calf serum RPMI 1640, label added 15 minutes after compound, further 60 minutes at 37° C., read-out: 50% Inhibiting Concentration (IC50) DNA Synthesis Inhibition
Protocol: as §1, §2

[4] = L1210 cells, RPMI 1640 with 20% calf serum, 37° C., 48 hours

Structure (SMILES)	IC50 [1, 4] [µg/mL]	IC50 [2] [µg/mL]	IC50 [3] [µg/mL]	IC50 ([1]; L1210, 48 h) [µg/mL]
CCC1(O)CC(OC2CC(N)C(OC3CCC(O)C(C)O3)C(C)O2)c2c(O)c3c(c(O)c2C1O)C(=O)c1cccc(O)c1C3=O (stereo not drawn) [CG15A]	0.002 (≈ 0.00318 µM)	3 (≈ 4.76 µM)	1.2 (≈ 1.91 µM)	
CCC1(O)CC(OC2CC(N)C(OC3CC(O)C(O)C(C)O3)C(C)O2)c2c(O)c3c(c(O)c2C1O)C(=O)c1cccc(O)c1C3=O (stereo not drawn) [CG15B]		2.5 (≈ 3.87 µM)	4.6 (≈ 7.12 µM)	0.04 (≈ 0.062 µM)
CCC1(O)CC(OC2CC(N)C(OC3CCC(O)C(C)O3)C(C)O2)c2c(O)c3c(c(O)c2C1C(=O)OC)C(=O)c1cccc(O)c1C3=O (stereo not drawn) [CG17A]	0.5 (≈ 0.744 µM)	1.1 (≈ 1.64 µM)	3.3 (≈ 4.91 µM)	
CCC1(O)CC(OC2CC(N)C(OC3CC(O)C(O)C(C)O3)C(C)O2)c2c(O)c3c(c(O)c2C1C(=O)OC)C(=O)c1cccc(O)c1C3=O (stereo not drawn) [CG17B]	1.4 (≈ 2.04 µM)	2.3 (≈ 3.34 µM)	10 (≈ 14.5 µM)	
CCC1(O)CC(OC2CC(N)C(OC3CCC(O)C(C)O3)C(C)O2)c2c(O)c3c(c(O)c2C1C(=O)OC)C(=O)c1cccc(OC)c1C3=O (stereo not drawn) [CG19A]	1 (≈ 1.46 µM)	1.3 (≈ 1.9 µM)	4.8 (≈ 7 µM)	
CCC1(O)CC(OC2CC(N)C(OC3CC(O)C(O)C(C)O3)C(C)O2)c2c(O)c3c(c(O)c2C1C(=O)OC)C(=O)c1cccc(OC)c1C3=O (stereo not drawn) [CG19B]		10 (≈ 14.3 µM)	10 (≈ 14.3 µM)	
CC1OC(OC2C(N)CC(OC3CC(O)(C(C)O)Cc4c(O)c5c(c(O)c43)C(=O)c3c(O)cccc3C5=O)OC2C)CCC1O (stereo not drawn) [CG20A]		1.2 (≈ 1.91 µM)	1.2 (≈ 1.91 µM)	
CC1OC(OC2C(N)CC(OC3CC(O)(C(C)O)Cc4c(O)c5c(c(O)c43)C(=O)c3c(O)cccc3C5=O)OC2C)CC(O)C1O (stereo not drawn) [CG20B]		5 (≈ 7.74 µM)	10 (≈ 15.5 µM)	
CCC1(O)CC(OC2CC(N(C)C)C(OC3CCC(O)C(C)O3)C(C)O2)c2c(O)c3c(c(O)c2C1O)C(=O)c1cccc(O)c1C3=O (stereo not drawn) [CG21A]		0.18 (≈ 0.274 µM)	0.38 (≈ 0.578 µM)	
CCC1(O)CC(OC2CC(NC)C(OC3CCC(O)C(C)O3)C(C)O2)c2c(O)c3c(c(O)c2C1O)C(=O)c1cccc(O)c1C3=O (stereo not drawn) [CG22A]		1.4 (≈ 2.17 µM)	0.87 (≈ 1.35 µM)	
CCC1(O)CC(OC2CC(NC)C(OC3CC(O)C(O)C(C)O3)C(C)O2)c2c(O)c3c(c(O)c2C1O)C(=O)c1cccc(O)c1C3=O (stereo not drawn) [CG22B]		10 (≈ 15.2 µM)	5 (≈ 7.58 µM)	
